Experimental data from PubChem BioAssay (NCI).
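48-hour exposure; five concentrations; linearly interpolated endpoints. TGI: total growth inhibition.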

Experiments:
Experiment in all cases: DTP human tumour cell line panel, 48 h
OVCAR-4 ovarian = test system: OVCAR-4 ovarian
A498 renal = test system: A498 renal
SNB-75 CNS = test system: SNB-75 CNS
K-562 leukemia = test system: K-562 leukemia
NCI-H226 lung = test system: NCI-H226 lung
OVCAR-5 ovarian = test system: OVCAR-5 ovarian
MDA-MB-435 = test system: MDA-MB-435
HT29 colon = test system: HT29 colon
NCI/ADR-RES ovarian = test system: NCI/ADR-RES ovarian
SK-MEL-2 melanoma = test system: SK-MEL-2 melanoma
MDA-MB-231 breast = test system: MDA-MB-231 breast
IGROV1 ovarian = test system: IGROV1 ovarian
SK-MEL-28 melanoma = test system: SK-MEL-28 melanoma
DU-145 prostate = test system: DU-145 prostate
SF-539 CNS = test system: SF-539 CNS
UO-31 renal = test system: UO-31 renal
HCC-2998 colon = test system: HCC-2998 colon
OVCAR-3 ovarian = test system: OVCAR-3 ovarian
COLO 205 colon = test system: COLO 205 colon
BT-549 breast = test system: BT-549 breast
SK-OV-3 ovarian = test system: SK-OV-3 ovarian
NCI-H460 lung = test system: NCI-H460 lung
HL-60(TB) leukemia = test system: HL-60(TB) leukemia
LOX IMVI melanoma = test system: LOX IMVI melanoma
OVCAR-8 ovarian = test system: OVCAR-8 ovarian
MOLT-4 leukemia = test system: MOLT-4 leukemia
NCI-H23 lung = test system: NCI-H23 lung
SN12C renal = test system: SN12C renal
HCT-15 colon = test system: HCT-15 colon
HS 578T breast = test system: HS 578T breast
UACC-62 melanoma = test system: UACC-62 melanoma
MCF7 breast = test system: MCF7 breast
EKVX NSCLC = test system: EKVX NSCLC
SK-MEL-5 melanoma = test system: SK-MEL-5 melanoma
RPMI-8226 leukemia = test system: RPMI-8226 leukemia
SR leukemia = test system: SR leukemia
SW-620 colon = test system: SW-620 colon
M14 melanoma = test system: M14 melanoma
786-0 renal = test system: 786-0 renal
MALME-3M melanoma = test system: MALME-3M melanoma
SF-268 CNS = test system: SF-268 CNS
NCI-H522 lung = test system: NCI-H522 lung
ACHN renal = test system: ACHN renal
SNB-19 CNS = test system: SNB-19 CNS
U251 CNS = test system: U251 CNS
UACC-257 melanoma = test system: UACC-257 melanoma
A549 NSCLC = test system: A549 NSCLC
PC-3 prostate = test system: PC-3 prostate
T-47D breast = test system: T-47D breast
HOP-62 NSCLC = test system: HOP-62 NSCLC
HCT-116 colon = test system: HCT-116 colon
RXF 393 renal = test system: RXF 393 renal
SF-295 CNS = test system: SF-295 CNS
TK-10 renal = test system: TK-10 renal

COc1ccccc1Cn1c2c(c3c(C(=O)NCCN(C)C)c(O)ccc31)C(=O)c1ccccc1C2=O
TGI (OVCAR-4 ovarian): 3.04 µM
TGI (A498 renal): 41.2 µM
TGI (SNB-75 CNS): 2.96 µM
TGI (K-562 leukemia): 4 µM
TGI (NCI-H226 lung): 51.5 µM
TGI (OVCAR-5 ovarian): 3.62 µM
TGI (MDA-MB-435): 3.24 µM
TGI (HT29 colon): 3.47 µM
TGI (NCI/ADR-RES ovarian): 4.93 µM
TGI (SK-MEL-2 melanoma): 3.46 µM
TGI (MDA-MB-231 breast): 3.72 µM
TGI (IGROV1 ovarian): 3.23 µM
TGI (SK-MEL-28 melanoma): 3.15 µM
TGI (DU-145 prostate): 3.31 µM
TGI (SF-539 CNS): 3.09 µM
TGI (UO-31 renal): 3.33 µM
TGI (HCC-2998 colon): 3.02 µM
TGI (OVCAR-3 ovarian): 3.36 µM
TGI (COLO 205 colon): 3.19 µM
TGI (BT-549 breast): 64.7 µM
TGI (SK-OV-3 ovarian): 43.4 µM
TGI (NCI-H460 lung): 4.23 µM
TGI (HL-60(TB) leukemia): 2.78 µM

CCCCP(CCCC)(CCCC)=C(C(=O)OC)C(C(=O)OC)=C1SC(C(=O)OC)=C(C(=O)OC)S1
TGI (OVCAR-4 ovarian): 52.5 µM
TGI (LOX IMVI melanoma): 28.5 µM
TGI (OVCAR-8 ovarian): 48.8 µM
TGI (MOLT-4 leukemia): 44.5 µM
TGI (NCI-H23 lung): 45.4 µM
TGI (SN12C renal): 29.8 µM
TGI (HCT-15 colon): 96 µM
TGI (HS 578T breast): 43.7 µM
TGI (SNB-75 CNS): 45.4 µM
TGI (NCI-H226 lung): 45 µM
TGI (OVCAR-5 ovarian): 52.5 µM
TGI (MDA-MB-435): 28.1 µM
TGI (HT29 colon): 30.7 µM
TGI (UACC-62 melanoma): 27.1 µM
TGI (SK-MEL-2 melanoma): 63.1 µM
TGI (MCF7 breast): 30.9 µM
TGI (EKVX NSCLC): 68.5 µM
TGI (MDA-MB-231 breast): 35.7 µM
TGI (SK-MEL-5 melanoma): 29.7 µM
TGI (IGROV1 ovarian): 23.8 µM
TGI (RPMI-8226 leukemia): > 100 µM
TGI (SR leukemia): > 100 µM
TGI (SK-MEL-28 melanoma): 29.8 µM
TGI (DU-145 prostate): > 100 µM
TGI (SW-620 colon): 87 µM
TGI (UO-31 renal): 51.4 µM
TGI (M14 melanoma): 30.2 µM
TGI (786-0 renal): 40 µM
TGI (MALME-3M melanoma): 41.1 µM
TGI (SF-268 CNS): > 100 µM
TGI (NCI-H522 lung): 49.6 µM
TGI (ACHN renal): 54.3 µM
TGI (SNB-19 CNS): 49 µM
TGI (U251 CNS): 29.5 µM
TGI (UACC-257 melanoma): 37.3 µM
TGI (A549 NSCLC): 40.1 µM
TGI (PC-3 prostate): 51 µM
TGI (OVCAR-3 ovarian): 53.1 µM
TGI (T-47D breast): 43.7 µM
TGI (HOP-62 NSCLC): 49.3 µM
TGI (COLO 205 colon): 45.5 µM
TGI (BT-549 breast): 30.9 µM
TGI (HCT-116 colon): 31.9 µM
TGI (RXF 393 renal): 22.8 µM
TGI (SF-295 CNS): 36.3 µM
TGI (SK-OV-3 ovarian): 75.8 µM
TGI (NCI-H460 lung): 35.9 µM
TGI (TK-10 renal): > 100 µM
